According to patent US20220111094A1, “PATHOGEN DECONTAMINATION OF PERSONAL PROTECTIVE EQUIPMENT (PPE), FACE FILTERING R[…] (FFR) AND SINGLE USE MEDICAL DEVICES (SUD)” (priority 2020, published 2022):

How the values were obtained:
Assay type in all cases: cell-based
HIV-1 = test: SuperFluids CFI decontamination of medical devices (MDV experiments), residual virus by TCID50; conditions: medical device components such as N95 masks
Protocol: Virus was eluted from control (black bars) and treated (white bars) beads by incubating them with 1 ml of growth media for 30 minutes at room temperature. The amount of HIV p24 in the eluate was measured in an ELISA.
The decontamination device prototype can be run in two modes: dynamic and static. In the static mode, virus-coated N95 face masks and other PPEs were placed in the CFI™ chamber and contacted with the SuperFluids™ for a specific amount of time at a specified pressure and temperature. The CFI™ chamber is be then rapidly exhausted into the expansion chamber. In the dynamic mode, SuperFluids™ is continuously flowed over the virus-coated glass beads at a rate of 20 mL/min, and slowly exhausted at the end of the experiment.

EMC = test: CFI virus inactivation of EMC in a FBS matrix; conditions: 50° C., 3,000 psig, previous data
Protocol: Since Freon-22 use and production may be adversely impacted by future environmental concerns, we evaluated alternate refrigerants. Per the listing of thermodynamic properties in Table 1, Freon-23 (trifluoromethane) appears to be an excellent CFI™ candidate because: (i) it is non-chlorinated (the chlorine component of chlorofluorocarbons is thought to be responsible for their negative impact on the ozone layer): (ii) it has a low critical temperature of 25.9° C. (allows operation close to critical conditions while minimizing thermal denaturation of heat sensitive materials); and (iii) it has a relatively large dipole moment of 1.6 Debye (a large potential of solubilizing polar lipids and fats). From a comparison of previous data on the CFI™ virus inactivation of EMC in a FBS matrix, Freon-23 appears to be the best alternate to Freon-22. On the average, Freon-23 inactivated ˜3 logs vs. ˜6 logs of EMC at similar conditions of temperature (50° C.) and pressure (3,000 psig).

[1] = test system: murine leukemia virus (MuLV); test: CFI inactivation of murine leukemia virus at conditions of almost identical density; conditions: 1,000 psig and 10° C., 2,000 psig and 22° C. and 4,000 psig and 40° C.
Protocol: Temperature. In preliminary studies, all experiments were conducted at or around room temperature in order to maximize the […] of the time and temperature control. Under these conditions, most of the CFI experiments were conducted at sub-critical conditions that may not be optimal for virus inactivation. Temperature will have an impact on both the thermodynamic properties of the SuperFluids™, the configurational structure of the virus, and the integrity of the PPEs and SUDs. Temperature with pressure defines the density of SuperFluids™, and their solvation capacities and expansion factors; the former impacts viral kill by a phospholipid solubilization mechanism and the latter by an explosive decompression mechanism. […] CFI™ technology thus favors lower temperatures, which are better for material integrity. Lowering the temperature often requires the lowering of pressure because density is directly (but not linearly) proportional to pressure and inversely proportional to temperature.

| SMILES | logs of EMC inactivated (on the average) (EMC) [logs] | other results |
| --- | --- | --- |
| O=C=O [Carbon dioxide] | – | virus inactivation of HIV viruses associated with medical device components (HIV-1): quite effective |
| FC(F)Cl [Freon-22, chlorodifluoromethane] | ~6 | – |
| FC(F)F [Freon-23, trifluoromethane] | ~3 | – |
| [N-]=[N+]=O [N20, Nitrous Oxide] | – | inactivation of MuLV [1]: equally effective |
